Series [1] concerns the target Protein kinase C alpha type (Homo sapiens) (UniProt P17252). The experiment in a line: Inhibition of PKCalpha (unknown origin) at 1 uM after 60 mins by Z-LYTE assay relative to control.
For series [2], the species on record is Homo sapiens. Kind of series: Inhibition of IL10/JAK/STAT3 signaling in human PBMC assessed as reduction in LPS-induced TNFalpha production at 100 nM preincubated for 2 hrs followed by LPS stimulation measured after 24 hrs by ELISA. For orientation: ELISA stands for enzyme-linked immunosorbent assay.
Series [3] is described as follows: Clearance in ICR mouse at 5 mg/kg, po via gavage by LC/MS/MS analysis. The settings on record: in vivo. The series is classed as ADME, organism-based.
Series [4] deals with Epidermal growth factor receptor (Homo sapiens) (UniProt P00533). Kind of series: Inhibition of EGFR (unknown origin) at 1 uM after 60 mins by Z-LYTE assay.
Chain of Epidermal growth factor receptor (Homo sapiens) (P00533 whole entry): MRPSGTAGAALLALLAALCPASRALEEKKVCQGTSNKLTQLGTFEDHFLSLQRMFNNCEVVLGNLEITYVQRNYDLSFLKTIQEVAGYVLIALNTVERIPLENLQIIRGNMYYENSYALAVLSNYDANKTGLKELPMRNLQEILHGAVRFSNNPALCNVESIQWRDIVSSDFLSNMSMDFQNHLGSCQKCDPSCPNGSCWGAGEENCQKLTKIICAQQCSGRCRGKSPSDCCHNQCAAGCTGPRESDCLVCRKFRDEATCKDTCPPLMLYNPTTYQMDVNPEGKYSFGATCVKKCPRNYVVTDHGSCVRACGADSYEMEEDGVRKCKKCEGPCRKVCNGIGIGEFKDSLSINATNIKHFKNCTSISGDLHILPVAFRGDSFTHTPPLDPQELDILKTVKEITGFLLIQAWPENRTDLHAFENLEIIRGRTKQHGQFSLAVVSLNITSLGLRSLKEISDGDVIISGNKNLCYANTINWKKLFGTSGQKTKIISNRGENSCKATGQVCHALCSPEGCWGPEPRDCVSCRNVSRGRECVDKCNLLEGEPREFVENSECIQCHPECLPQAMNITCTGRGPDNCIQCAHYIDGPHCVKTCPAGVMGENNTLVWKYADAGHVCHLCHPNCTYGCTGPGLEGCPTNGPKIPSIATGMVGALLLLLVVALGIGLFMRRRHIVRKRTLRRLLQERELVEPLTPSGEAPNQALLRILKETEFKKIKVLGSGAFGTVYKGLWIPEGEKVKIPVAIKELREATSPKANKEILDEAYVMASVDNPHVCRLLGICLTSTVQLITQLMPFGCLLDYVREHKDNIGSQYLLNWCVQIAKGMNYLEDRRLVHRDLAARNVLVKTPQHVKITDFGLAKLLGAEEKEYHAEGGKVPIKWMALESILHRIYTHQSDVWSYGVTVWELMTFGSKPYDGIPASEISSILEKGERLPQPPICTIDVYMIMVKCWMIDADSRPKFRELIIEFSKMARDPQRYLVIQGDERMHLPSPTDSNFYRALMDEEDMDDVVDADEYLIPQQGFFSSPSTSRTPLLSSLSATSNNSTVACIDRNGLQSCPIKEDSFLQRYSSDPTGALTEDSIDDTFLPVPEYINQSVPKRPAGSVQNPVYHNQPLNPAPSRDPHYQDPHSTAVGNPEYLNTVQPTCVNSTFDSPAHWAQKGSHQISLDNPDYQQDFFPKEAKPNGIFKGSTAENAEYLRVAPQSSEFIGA
For series [5], the target named is Protein kinase C gamma type (Homo sapiens) (UniProt P05129). The experiment in a line: Inhibition of PKCgamma (unknown origin) at 1 uM after 60 mins by Z-LYTE assay relative to control.
The species entered for series [6] is Homo sapiens. The experiment in a line: Inhibition of IL10/JAK/STAT3 signaling in human PBMC assessed as reduction in LPS-induced IL6 production at 100 nM preincubated for 2 hrs followed by LPS stimulation measured after 24 hrs by ELISA.
Series [7] deals with Glycogen synthase kinase-3 beta (Homo sapiens) (UniProt P49841). The experiment in a line: Inhibition of GSK3beta (unknown origin) at 1 uM after 60 mins by Z-LYTE assay relative to control.
Chain of Glycogen synthase kinase-3 beta (Homo sapiens) (P49841 whole entry, looked up): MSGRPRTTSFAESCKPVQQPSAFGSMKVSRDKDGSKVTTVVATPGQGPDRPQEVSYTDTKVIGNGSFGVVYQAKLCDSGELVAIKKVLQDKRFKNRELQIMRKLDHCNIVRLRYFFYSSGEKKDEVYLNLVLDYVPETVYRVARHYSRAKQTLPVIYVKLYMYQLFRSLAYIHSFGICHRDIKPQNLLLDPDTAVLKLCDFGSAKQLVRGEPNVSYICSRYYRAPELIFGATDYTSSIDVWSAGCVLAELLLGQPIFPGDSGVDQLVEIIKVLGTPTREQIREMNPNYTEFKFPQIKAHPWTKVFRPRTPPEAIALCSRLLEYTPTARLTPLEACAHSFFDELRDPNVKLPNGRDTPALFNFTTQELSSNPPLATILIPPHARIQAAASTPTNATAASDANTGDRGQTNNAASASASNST
Another series concerns PBMC. Kind of series: Effect on IL6-induced MCP1 production in human PBMC at 100 to 6000 nM preincubated for 2 hrs followed by IL6 stimulation measured after 24 hrs by ELISA. The series is classed as functional, cell-based.
For series [8], the target named is T1, Tyrosine-protein kinase ITK/TSK (Homo sapiens) (UniProt Q08881).
T1 sequence (whole entry): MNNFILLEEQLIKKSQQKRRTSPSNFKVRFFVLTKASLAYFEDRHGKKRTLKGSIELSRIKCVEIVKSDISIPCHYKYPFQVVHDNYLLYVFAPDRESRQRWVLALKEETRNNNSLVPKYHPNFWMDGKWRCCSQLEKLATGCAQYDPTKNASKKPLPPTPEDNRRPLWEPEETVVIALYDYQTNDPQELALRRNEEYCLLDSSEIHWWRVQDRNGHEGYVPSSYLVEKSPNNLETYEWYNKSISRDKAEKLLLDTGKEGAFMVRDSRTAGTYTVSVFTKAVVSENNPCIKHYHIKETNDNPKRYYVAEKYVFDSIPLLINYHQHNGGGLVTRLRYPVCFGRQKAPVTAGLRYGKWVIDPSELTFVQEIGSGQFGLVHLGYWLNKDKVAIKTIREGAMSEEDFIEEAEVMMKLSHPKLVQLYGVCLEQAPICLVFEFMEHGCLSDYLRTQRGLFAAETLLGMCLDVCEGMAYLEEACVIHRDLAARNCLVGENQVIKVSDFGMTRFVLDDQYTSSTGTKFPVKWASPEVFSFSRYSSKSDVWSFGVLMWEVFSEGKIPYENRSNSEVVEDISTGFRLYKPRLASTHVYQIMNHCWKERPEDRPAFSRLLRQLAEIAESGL
Kind of series: Inhibition of ITK (unknown origin) at 1 uM after 60 mins by Z-LYTE assay.

Series [9] has as its target Tyrosine-protein kinase BTK (Homo sapiens) (UniProt Q06187). Kind of series: Inhibition of BTK (unknown origin) at 1 uM after 60 mins by Z-LYTE assay.

The source made the active and inactive calls. The calls are words filed in the database; no cut-off is given here.

Chain of Tyrosine-protein kinase BTK (Homo sapiens) (Q06187 whole entry): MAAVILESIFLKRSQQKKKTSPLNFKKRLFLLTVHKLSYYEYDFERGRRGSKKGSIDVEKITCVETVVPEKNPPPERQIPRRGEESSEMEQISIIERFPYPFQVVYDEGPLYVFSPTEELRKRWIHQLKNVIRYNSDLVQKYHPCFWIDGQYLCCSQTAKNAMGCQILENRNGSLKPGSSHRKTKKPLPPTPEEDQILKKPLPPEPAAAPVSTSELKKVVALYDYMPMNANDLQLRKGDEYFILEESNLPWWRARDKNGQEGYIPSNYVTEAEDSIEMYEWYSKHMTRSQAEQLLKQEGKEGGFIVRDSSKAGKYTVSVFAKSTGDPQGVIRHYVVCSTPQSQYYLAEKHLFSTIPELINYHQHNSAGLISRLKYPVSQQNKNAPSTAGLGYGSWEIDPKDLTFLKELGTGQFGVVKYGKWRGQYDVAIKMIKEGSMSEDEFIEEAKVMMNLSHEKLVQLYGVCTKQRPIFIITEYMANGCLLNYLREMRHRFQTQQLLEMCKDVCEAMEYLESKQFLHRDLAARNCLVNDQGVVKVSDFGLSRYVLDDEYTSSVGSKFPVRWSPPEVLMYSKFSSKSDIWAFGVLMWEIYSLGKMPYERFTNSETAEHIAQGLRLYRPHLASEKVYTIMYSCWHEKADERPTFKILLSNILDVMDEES

One may read the inhibition as the relative decrease from the control value, in per cent. For orientation: CL/F means clearance divided by bioavailability, as obtained after extravascular dosing. For the molecule `C=CC(=O)N1CCN(c2ccc([N+](=O)[O-])c(C3=C(c4c[nH]c5ccccc45)C(=O)NC3=O)c2)CC1`, the inhibition in series [1], in series [5] and in [7] was > 80% each time. The inhibition result (in the series filed under Homo sapiens [2]; in series [4]; in the series listed under Homo sapiens [6]; in [8]; in series [9]) was “Active” throughout. Moreover, the CL/F in series [3] was determined as 138 mL/min/kg. Further, in the series on PBMC, the outcome was inactive.

For the molecule `CC(C)(O)C(=O)N1CCN(c2ccc(C(F)(F)F)c(C3=C(c4c[nH]c5ccccc45)C(=O)NC3=O)c2)CC1`, the inhibition entry in the series listed under Homo sapiens [2] and in the series filed under Homo sapiens [6] was “Active” throughout. Also, in the series on PBMC, the result was inactive.

`C=CC(=O)N1C[C@H](Nc2ncnc3[nH]ccc23)CC[C@@H]1C`: the inhibition entry in the series filed under Homo sapiens [2] and in the series filed under Homo sapiens [6] was “Active” in each case. For the same molecule, the outcome in the series with PBMC was inactive.

Values taken from ChEMBL document CHEMBL4330124, “Discovery of an Orally Available Janus Kinase 3 Selective Covalent Inhibitor” (J Med Chem, 2019).
